# According to patent US20150328322A1, “DRUG DELIVERY VEHICLES” (priority 2012, published 2015):
# Assays:
# [1] = molecular target: T1, MLD capsid II (Escherichia phage T7, UniProt P03728+P19726); assay: Diffusion-driven permeation of dyes into internal cavity of MLD capsid II; type: physicochemical; conditions: entry through the gp8 portal
# T1 construct: These latter capsid shells are produced during DNA packaging
# Description: MLD Capsid II. […] Thus, bis-ANS, ethidium, and presumably other similarly sized compounds enter MLD capsid II through the gp8 portal (see FIG. 1a).
# [2] = molecular target: T1, MLD capsid II; assay: AUC-BD in a Nycodenz density gradient after pre-centrifugation incubation; type: physicochemical
# Experimental: By use of recent technical advances, both densities and their pressure dependence have been explored by use of analytical buoyant density equilibrium sedimentation (AUC-BD) performed with a Nycodenz density gradient and a fluorescence detector. The data were analyzed with the UltraScan-III software (Demeler et al., (2012) UltraScan-III, a comprehensive analysis software for analytical ultracentrifugation experiments. The University of Texas Health Science Center at San Antonio, Dept. of Biochemistry). […] The sources of the peak sharpness are small diffusion coefficient and uniform density of phage and phage capsids. […] Fluorescence detection provides picomolar sensitivity and several orders of magnitude of dynamic range. AUC-BD is also efficient in that (1) no gradient fractionation and analysis of separate fractions is needed, (2) sample concentrations in the picomolar range are used, over 2 orders of magnitude less than what is needed for other procedures of detection, (3) 14 samples can be simultaneously run and (4) pressure and temperature dependences are determined with one set of samples by progressively changing the speed and temperature of centrifugation.
# The details of the AUC-BD are the following. […] If the particle is uniform in density and its diffusion is low, then a sharp peak of fluorescence will form. […]
# [3] = molecular target: T2, T7 MLD capsid II (Escherichia phage T7, UniProt P03728+P19726); conditions: 25° C.; FIG. 5 adapted from Khan et al. 1992; cited from earlier work
# T2 construct: These latter capsid shells are produced during DNA packaging
# [4] = molecular target: T3, MHD capsid II (Escherichia phage T7, UniProt P19726); assay: Fluorescence (I) vs. time binding of bis-ANS to connector-free capsid; type: physicochemical; conditions: capsid II particle without connector
# T3 construct: These latter capsid shells are produced during DNA packaging; made in house; host or cells: phage-infected E. coli (inferred)
# Description: For measuring the rate of loading of a compound in MLD capsid II, an alternative to AUC-BD is usually needed for reasons of efficiency of time and cost. Total fluorescence (/) has been used to determine the rate of loading for bis-ANS, because bis-ANS undergoes fluorescence enhancement when it binds to hydrophobic areas of proteins, including several internal T7 proteins (gps8, gps15, gps16)—the T7 proteins bound were identified by ultraviolet light-induced, covalent cross-linking to bis-ANS after binding. The value of I vs. time at 25° C. is plotted in FIG. 5 (adapted from Khan et al., Biophys. J. 1992, 63:1286-1292), during incubation of bis-ANS with T7 MLD capsid II and also the mature phage T7 and a T7 deletion mutant, C5-LG3. Binding to the exterior of the capsid was so rapid that it was complete before the first measurement. […] Thus, the loading rate is simply observed by measuring I vs. time and subtracting the initial signal. […] MLD capsid II-bound bis-ANS fluorescence is quenched by incubation with ethidium cation.
# [5] = molecular target: T1, MLD capsid II; assay: Buoyant density after incubation with sodium iothalamate; type: physicochemical; conditions: 25° C.; loads, but very slowly
# Description: Assays for Loading. To assay for diffusion-driven loading of a compound in the cavity of MLD capsid II, the most direct method is to perform buoyant density equilibrium centrifugation in a non-ionic density gradient of either Metrizamide (mw=789) or the closely related compound, Nycodenz (mw=821). If a compound enters MLD capsid II, the density changes after loading. Most dyes and drugs would, if loaded, cause the density of MLD capsid II to increase. The reason is that most dyes and drugs are denser than water and a loaded dye or drug molecule replaces internal MLD capsid II water. The exceptionally high hydration of MLD capsid II causes the density of MLD capsid II to be extremely low, typically between 1.08 and 1.12 g/ml, decreasing with increasing centrifugation speed, i.e., with increasing pressure (unpublished observations of the laboratories of Borries Demeler and Philip Serwer).
# As the temperature decreases, the loading rate is expected to decrease, eventually to zero at a critical temperature. The critical temperature is expected to decrease as the molecular weight of the compound loaded decreases. The borderline for loading MLD capsid II at 25° C. is somewhat higher than 612, based on the fact that iothalamate anion (mw =612) loads, but very slowly (>19 hours), as determined by the buoyant density after incubation with sodium iothalamate. […]
structure (smiles),measurement,setting,value
CC(=O)Nc1c(I)c(C(=O)N[C@H]2C(O)O[C@H](CO)[C@@H](O)[C@@H]2O)c(I)c(N(C)C(C)=O)c1I (some centres unmarked) [Metrizamide],diffusion into the internal cavity of MLD capsid II,[1],never been observed to detectably diffuse into MLD capsid II
CC(=O)N(CC(O)CO)c1c(I)c(C(=O)NCC(O)CO)c(I)c(C(=O)NCC(O)CO)c1I (centres unmarked) [Nycodenz],entry into MLD capsid II,"[2]; pre-centrifugation incubation at 61° C. and 68° C., conversion to high-density particle, shell intact",does enter
same,entry into MLD capsid II,[2]; pre-centrifugation incubation at temperatures as high as 54° C.,does not enter MLD capsid II
"O=S(=O)(O)c1cccc2c(-c3ccc(Nc4ccccc4)c4c(S(=O)(=O)O)cccc34)ccc(Nc3ccccc3)c12 [bis-ANS, 4,4′-dianilino-1,1′-binaphthyl-5,5′-disulfonic acid]",time of bis-ANS binding to the interior (loading),[3],several hours
same,diffusion into the internal cavity of MLD capsid II,[1],diffuse into the internal cavity of MLD capsid II (over hours)
same,bis-ANS binding kinetics,[4],Only rapid (effectively instantaneous) binding
CC[n+]1c(-c2ccccc2)c2cc(N)ccc2c2ccc(N)cc21 [ethidium],diffusion into the internal cavity of MLD capsid II,[1],diffuse into the internal cavity of MLD capsid II (over hours)
CNC(=O)c1c(I)c(NC(C)=O)c(I)c(C(=O)O)c1I [iothalamate],loading time,[5],> 19 h
